Test results taken from PubChem BioAssay (NCI).
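In this assay, cells in 96-well plates receive the compound at five concentrations for 48 hours. Endpoints are linearly interpolated between the surrounding concentrations. TGI denotes the concentration required for complete inhibition of growth.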

Legend:
Assay in all cases: NCI tumour cell line growth inhibition, 48 h
[1] = tested on: HOP-92 NSCLC
[2] = tested on: SF-295 CNS
[3] = tested on: UACC-257 melanoma
[4] = tested on: COLO 205 colon
[5] = tested on: HL-60(TB) leukemia
[6] = tested on: U251 CNS
[7] = tested on: RXF 393 renal
[8] = tested on: UO-31 renal
[9] = tested on: HCC-2998 colon
[10] = tested on: OVCAR-3 ovarian
[11] = tested on: NCI-H23 lung
[12] = tested on: PC-3 prostate
[13] = tested on: MCF7 breast
[14] = tested on: OVCAR-5 ovarian
[15] = tested on: EKVX NSCLC
[16] = tested on: RPMI-8226 leukemia
[17] = tested on: OVCAR-4 ovarian
[18] = tested on: A498 renal
[19] = tested on: HOP-62 NSCLC
[20] = tested on: CCRF-CEM leukemia
[21] = tested on: MDA-N
[22] = tested on: LOX IMVI melanoma
[23] = tested on: SN12C renal
[24] = tested on: KM12 colon
[25] = tested on: NCI-H226 lung
[26] = tested on: MALME-3M melanoma
[27] = tested on: IGROV1 ovarian
[28] = tested on: NCI/ADR-RES ovarian
[29] = tested on: MDA-MB-435
[30] = tested on: BT-549 breast
[31] = tested on: SNB-19 CNS
[32] = tested on: 786-0 renal
[33] = tested on: HT29 colon
[34] = tested on: DU-145 prostate
[35] = tested on: UACC-62 melanoma
[36] = tested on: HS 578T breast
[37] = tested on: SK-MEL-28 melanoma
[38] = tested on: SF-268 CNS
[39] = tested on: ACHN renal
[40] = tested on: K-562 leukemia
[41] = tested on: NCI-H522 lung
[42] = tested on: SK-MEL-5 melanoma
[43] = tested on: OVCAR-8 ovarian
[44] = tested on: MOLT-4 leukemia
[45] = tested on: SW-620 colon
[46] = tested on: HCT-116 colon
[47] = tested on: A549 NSCLC
[48] = tested on: HCT-15 colon
[49] = tested on: TK-10 renal
[50] = tested on: NCI-H460 lung
[51] = tested on: M14 melanoma
[52] = tested on: T-47D breast
[53] = tested on: SK-OV-3 ovarian
[54] = tested on: SF-539 CNS
[55] = tested on: SK-MEL-2 melanoma
[56] = tested on: MDA-MB-231 breast
[57] = tested on: CAKI-1 renal
[58] = tested on: SNB-75 CNS

## CC(C)C(=O)Nc1cc(C(F)(F)F)ccc1[N+](=O)[O-]
[1]
  TGI: > 100 µM
[2]
  TGI: > 100 µM
[3]
  TGI: > 100 µM
[4]
  TGI: > 100 µM
[5]
  TGI: > 100 µM
[6]
  TGI: > 100 µM
[7]
  TGI: > 100 µM
[8]
  TGI: > 100 µM
[9]
  TGI: > 100 µM
[10]
  TGI: > 100 µM
[11]
  TGI: > 100 µM
[12]
  TGI: > 100 µM
[13]
  TGI: > 100 µM
[14]
  TGI: > 100 µM
[15]
  TGI: > 100 µM
[16]
  TGI: > 100 µM
[17]
  TGI: > 100 µM
[18]
  TGI: > 100 µM
[19]
  TGI: > 100 µM
[20]
  TGI: > 100 µM
[21]
  TGI: > 100 µM
[22]
  TGI: > 100 µM
[23]
  TGI: > 100 µM
[24]
  TGI: > 100 µM
[25]
  TGI: > 100 µM
[26]
  TGI: > 100 µM
[27]
  TGI: > 100 µM
[28]
  TGI: > 100 µM
[29]
  TGI: > 100 µM
[30]
  TGI: > 100 µM
[31]
  TGI: > 100 µM
[32]
  TGI: > 100 µM
[33]
  TGI: > 100 µM
[34]
  TGI: > 100 µM
[35]
  TGI: > 100 µM
[36]
  TGI: > 100 µM
[37]
  TGI: > 100 µM
[38]
  TGI: > 100 µM
[39]
  TGI: > 100 µM
[40]
  TGI: > 100 µM
[41]
  TGI: > 100 µM
[42]
  TGI: > 100 µM
[43]
  TGI: > 100 µM
[44]
  TGI: > 100 µM
[45]
  TGI: > 100 µM
[46]
  TGI: > 100 µM
[47]
  TGI: > 100 µM
[48]
  TGI: > 100 µM
[49]
  TGI: > 100 µM
[50]
  TGI: > 100 µM
[51]
  TGI: > 100 µM
[52]
  TGI: > 100 µM
[53]
  TGI: > 100 µM
[54]
  TGI: > 100 µM
[55]
  TGI: > 100 µM
[56]
  TGI: > 100 µM
[57]
  TGI: > 100 µM

## O=c1[nH]nc(-c2ccccc2)n1/N=C/c1cccs1
[2]
  TGI: > 100 µM
[3]
  TGI: > 100 µM
[4]
  TGI: 35.8 µM
[6]
  TGI: > 100 µM
[7]
  TGI: 85.2 µM
[8]
  TGI: > 100 µM
[9]
  TGI: > 100 µM
[10]
  TGI: > 100 µM
[11]
  TGI: > 100 µM
[12]
  TGI: > 100 µM
[13]
  TGI: > 100 µM
[14]
  TGI: > 100 µM
[15]
  TGI: > 100 µM
[16]
  TGI: > 100 µM
[17]
  TGI: 62 µM
[18]
  TGI: > 100 µM
[19]
  TGI: > 100 µM
[20]
  TGI: > 100 µM
[21]
  TGI: > 100 µM
[22]
  TGI: > 100 µM
[23]
  TGI: > 100 µM
[24]
  TGI: > 100 µM
[25]
  TGI: > 100 µM
[26]
  TGI: > 100 µM
[28]
  TGI: 93.8 µM
[29]
  TGI: 79.5 µM
[30]
  TGI: 95.8 µM
[31]
  TGI: > 100 µM
[32]
  TGI: > 100 µM
[33]
  TGI: > 100 µM
[34]
  TGI: > 100 µM
[35]
  TGI: > 100 µM
[36]
  TGI: > 100 µM
[37]
  TGI: > 100 µM
[38]
  TGI: > 100 µM
[39]
  TGI: > 100 µM
[40]
  TGI: > 100 µM
[58]
  TGI: > 100 µM
[43]
  TGI: > 100 µM
[44]
  TGI: > 100 µM
[45]
  TGI: > 100 µM
[46]
  TGI: > 100 µM
[47]
  TGI: > 100 µM
[48]
  TGI: > 100 µM
[50]
  TGI: > 100 µM
[51]
  TGI: > 100 µM
[52]
  TGI: > 100 µM
[53]
  TGI: > 100 µM
[54]
  TGI: > 100 µM
[55]
  TGI: > 100 µM
[56]
  TGI: > 100 µM
[57]
  TGI: > 100 µM
